pEC50: −log10 of the molar value. “Also recorded” adds a separate entry of the source.

As a reminder, the pEC50 is −log10 of the EC50, conventionally taken in molar units. A low value points to a large EC50.

Assay [1] relates to S. invicta sNPF receptor (HA-tagged, stably expressed in CHO-K1 cells). Briefly: Inhibition of forskolin-stimulated intracellular cAMP in SisNPFR-C6E8 cell line (cAMP EIA). As to conditions: for Activity on the receptor (change of forskolin-stimulated cAMP), result in words: forskolin 10 µM, peptide at 1 µM (analogous sNP(F) tested at 10 nM and 1 µM), three biological replicates; for pEC50: 50 µM Ro-20-1724, forskolin 10 µM with 0-10 µM peptide (10 concentrations), 1 h, 37°C, three independent biological replicates. Type of assay: cell-based, Solenopsis invicta. As for the experimental part:
For the functional characterization of S. invicta sNPFR, stably transformed cell lines were established as described. In brief, CHO-K1 cells were obtained from the American Type Culture Collection (ATCC, Manassas, VA, USA) and grown as described in a 5% CO2 humidified incubator at 37°C. For transfection, CHO-K1 cells were seeded into T-25 tissue culture flasks and allowed to grow overnight until 50% confluent. Cells were transfected in serum-free Opti-MEM medium (Life Technologies, Gaithersburg, MD, USA) with the cationic lipid reagent Lipofectin (Life Technologies) (6 µl) and 2 µg of the expression construct according to the manufacturer’s protocol. After 6 h, the lipofectin-containing medium was removed and replaced with F12K (Sigma, St. Louis, MO, USA) medium plus 10% fetal bovine serum (EquiTech Bio, Kerrville, TX, USA) without antibiotic. After 48 h of growth, the cells were split into the same medium but with antibiotic Geneticin (Invitrogen) (800 µg/ml), and selection continued for 5 weeks followed by isolation of clonal lines. A total of 14 clonal cell lines were obtained by dilution and selection of single cells distributed in a 96-well plate (96 theoretical single cells). Presence of S. invicta sNPFR transcript was verified by screening by RT-PCR by pooling aliquots from clonal cell lines. For this, total RNA was isolated by RNeasy Mini kit (Qiagen) and used for cDNA synthesis with SuperScript III First-Strand Synthesis System followed by RT-PCR with receptor forward sNPFRf1 and reverse sNPFRr1 primers (Table S1). The cell lines from groups that generated the RT-PCR product of the expected size were further screened. Single positive clonal cell lines were subjected to functional assay using S. invicta sNPF1 and sNPF2 as ligands. Cell line C6 was further selected to obtain a line designated SisNPFR-C6E8, which was the best performing cell line and was chosen for receptor functional characterization.
To quantify changes in intracellular cAMP, 1×10^5 cells of SisNPFR-C6E8 were seeded in each well of a 6-well plate and incubated at 37°C in presence of 5% CO2 for 24 h to allow cell attachment. Cell culture medium [F12 K medium with 10% fetal bovine serum and 400 µg/ml of Geneticin] was then replaced with the same fresh medium as above and the cells were grown for additional 48 h until they reached 90–100% confluence. The cells were rinsed twice with F12 K medium only (serum and antibiotic free) and then incubated in 50 µM Ro-20-1724 phosphodiesterase inhibitor (Santa Cruz Biotechnology, Santa Cruz, CA, USA) in F12 K medium. Forskolin (10 µM) (Cayman Chemical, Ann Arbor, MI, USA) or forskolin (10 µM) with 0–10 µM solutions of ligands (10 concentrations), respectively, were added to the cells and incubated at 37°C in the presence of 5% CO2 for 1 h. Cells were rinsed once with F12 K medium, serum- and antibiotic-free, followed by lysis with 274 µl of 0.1 M HCl at RT for 20 min and centrifugation at 1000 g for 10 min. The supernatant was used for cAMP measurements using the cyclic AMP EIA Kit (Cayman Chemical) following the manufacturer’s protocol. In brief, 50 µl of supernatants and cAMP standards were loaded in a 96-well plate, and the cAMP EIA buffer was used as blank. cAMP AChE tracer (50 µl) (cAMP bound to acetylcholinesterase for competition) and 50 µl of anti-cAMP specific antiserum were added. Then the mixture was incubated at 4°C for 18 h. The mixture was removed and the plate was rinsed five times with wash buffer containing 0.05% polysorbate-20. After washing, the plate was developed at RT for 2 h using the Ellman’s reagent and the OD (412 nm) was measured in a VersaMax tunable microplate reader (Molecular Devices, Sunnyvale, CA, USA). cAMP level was calculated using Cayman provided formulas and aided by software located at http://www.myassays.com/(MyAssays Ltd., Haywards Heath, West Sussex, UK) for the output standard line graph and cAMP concentration calculations. […]

For assay [2], the system named is S. invicta sNPF receptor (SisNPFR-C6E8 cell line). The assay can be described thus: Pilot study: stimulation of intracellular cAMP production in SisNPFR-C6E8 cell line. The format is cell-based, Solenopsis invicta. Here is the method: To quantify changes in intracellular cAMP, 1×10^5 cells of SisNPFR-C6E8 were seeded in each well of a 6-well plate and incubated at 37°C in presence of 5% CO2 for 24 h to allow cell attachment. Cell culture medium [F12 K medium with 10% fetal bovine serum and 400 µg/ml of Geneticin] was then replaced with the same fresh medium as above and the cells were grown for additional 48 h until they reached 90–100% confluence. The cells were rinsed twice with F12 K medium only (serum and antibiotic free) and then incubated in 50 µM Ro-20-1724 phosphodiesterase inhibitor (Santa Cruz Biotechnology, Santa Cruz, CA, USA) in F12 K medium. […] After washing, the plate was developed at RT for 2 h using the Ellman’s reagent and the OD (412 nm) was measured in a VersaMax tunable microplate reader (Molecular Devices, Sunnyvale, CA, USA). cAMP level was calculated using Cayman provided formulas and aided by software located at http://www.myassays.com/(MyAssays Ltd., Haywards Heath, West Sussex, UK) for the output standard line graph and cAMP concentration calculations. […] For this, the average absorbance readings for non-specific binding (NSB) and B0 wells were obtained, and the NSB average was deducted from the B0 average to generate the corrected B0 maximum binding value. […] The cAMP concentration of each sample was determined on the basis of the standard curve. […]

With “WFGDVNQKPIRSPSLRLRFa [Drome sNPF2, Drosophila melanogaster sNPF peptide (AAN11060.1)]”, in assay [1], the “Activity on the receptor (change of forskolin-stimulated cAMP), result in words” value is “not active1 µM”. In the case of SPSLRLRFa [Drome sNPF212–19], the “Activity on the receptor (change of forskolin-stimulated cAMP), result in words” value in assay [1] is listed as “not active1 µM”. Still for that read-out and setting: the same measure for “AQRSPSLRLRFa [Drome sNPF1, Drosophila melanogaster sNPF peptide (AAN11060.1)]”: “not active1 µM”.

In assay [1], SALAAGHLRYa [S. invicta sNPF2] showed a pEC50 of 8.07. For the same substance, the “Stimulation of intracellular cAMP production (without forskolin), result in words” value in assay [2] was “did not stimulate production of intracellular cAMP”.

SLRSALAAGHLRYa [S. invicta sNPF1]: in assay [1], the negative logarithm of the EC50 (pEC50) was 8.48 and the “Activity on the receptor (change of forskolin-stimulated cAMP), result in words” value was “decreased cAMP”. The “Stimulation of intracellular cAMP production (without forskolin), result in words” value in assay [2] is “did not stimulate production of intracellular cAMP”. Consider “SLRSALAAGHLRFa [Analogous sNP(F), Analog of S. invicta sNPF1 with C-terminal amidated Y switched to F]”, for which, in assay [1], the “Activity on the receptor (change of forskolin-stimulated cAMP), result in words” value was “eliminates the ligand activity on the receptor”. “EPEPMARPTRPEIFTSPEELRRYIDHVSDYYLLSGKARYa [Apime NPY, Honey bee (A. mellifera) NPY, long NPF (NP_001161192.1), commercially synthesized]”: the “Activity on the receptor (change of forskolin-stimulated cAMP), result in words” value in assay [1] is recorded as “failed to change the cAMP production; also recorded: not active1 µM”; in assay [1] (listed as honey bee long NPF (NPY)) it was “not activated”.

The values are drawn from article PMC4195672, “The Red Imported Fire Ant (Solenopsis invicta Buren) Kept Y not F: Predicted sNPY Endogenous Ligands Deorphanize the Short NPF (sNPF) Receptor” (PLoS ONE, 2014).
